Here are results for 1 compound from EPA's ToxValDB 9.5 (doi:10.2903/j.efsa.2007.117r).

≈ marks a conversion by molar mass, not a printed value.

One series concerns Apis mellifera. The conditions noted are these: acute; duration: 48 hours; oral; unspecified; mortality.
For the next series, the system named is Tagia sp. The settings on record: acute; duration: 14 days; mortality.
In another series the test system is Bibionidae. The conditions noted are these: chronic/long-term; duration: 24 days; reproduction.
The subject of the next series is Bird. The conditions noted are these: for LD50: oral, mortality.
The next series has as its system Daphnia magna. The conditions noted are these: chronic/long-term; duration: 21 days; reproduction.
The subject of a further series is Canidae. The settings on record: subchronic; duration: 90 days; oral; Dog Other.
For a further series, the system named is Oryctolagus sp. The conditions noted are these: reproduction developmental; reproduction.
For a further series, the system named is Aphidius rhopalosiphi. The conditions noted are these: chronic/long-term; mortality.

In general, NOAEL refers to the highest dose or exposure tested at which no adverse effect was seen.

Regarding `NC1=C(Cl)C(=O)c2ccccc2C1=O` [2-Amino-3-chloro-1,4-naphthoquinone], the LD50 in the series on Apis mellifera is greater than 28 µg/piece; with Bird (acute, unspecified) it was greater than 2000 mg/kg-day; in the series with Bird (short-term, feed), 394 mg/kg-day; in the series on Rattus norvegicus (acute, oral, mortality), 500 mg/kg-day. Further, the LC50 in the series with Tagia sp. is 125 mg/kg; in the series with Oncorhynchus mykiss (acute, duration: 96 hours, mortality), 0.063 µg/mL (≈ 0.303 µM). Besides, the NOEC in the series with Bibionidae was 0.063 mg/L; with Daphnia magna, 0.0021 mg/L; in the series with Oncorhynchus mykiss (chronic/long-term, duration: 21 days, behavior), 0.02 mg/L. Besides, the NOAEL with Bird (chronic/long-term) amounted to 36.2 mg/kg-day; in the series with Rattus norvegicus (chronic, duration: 2 years, organ weight), 0.21 mg/kg-day; in the series on Rattus norvegicus (reproduction developmental, body weight), 5 mg/kg-day; in the series on Canidae, 3 mg/kg-day; in the series on Oryctolagus sp. it was 17.5 mg/kg-day. The LEL with Aphidius rhopalosiphi amounted to 3810 g/ha.
